Reference: US12448394B2, “Heterocyclic pyrazole derivatives as type III receptor tyrosine kinase inhibitors” (DEVELOPMENT CENTER FOR BIOTECHNOLOGY, priority 2019, dated 2025)
Read-outs that look alike come from different tables or passages of the source.

Experiments:
[1] = system: MV4-11 human acute myeloid leukemia cell with FLT3-ITD mutation; experiment: MV4-11 cell proliferation assay (CellTiter 96); format: cell-based; conditions: MV4-11 cells, 72 hours treatment, CellTiter96, read-out: anti-proliferation activity MV4-11 (FLT3-ITD), IC50 ranking
Protocol: (§1) Inhibitions of cell growths by compounds were measured using CellTiter™-96 assay. The cytotoxicities of compounds of the invention were evaluated in cell line panels with different signaling pathway dependencies, including MV4-11 human acute myeloid leukemia cell with FLT3-ITD mutation, Molm-14 human acute myeloid leukemia cell with FLT3-ITD mutation, THP-1 human acute monocytic leukemia cell with NRAS G12D mutation, A375 melanoma cell with BRAF V600E mutation, and HCC827 NSCLC cell with EGFR exon 19 deletion mutation.
The compounds disclosed herein were tested in MV4-11 cell proliferation assay to determine their cellular potencies against FLT3 signal pathway dependent cell growths. MV4-11 cells are human acute myeloid leukemia (AML) cells harboring ligand-independent FLT3-ITD activating mutation, which renders the abnormal proliferation of AML cells FLT3 signaling pathway dependent. Inhibition of FLT3 kinase activity will result in reduced growths and/or cell deaths. MV4-11 cells (catalog #CRL-9591) were obtained from the American Type Culture Collection (ATCC, Manassas, VA). Briefly, cells were grown in IMDM medium supplemented with 10% heat inactivated fetal bovine serum and incubated at 37° C. in 5% CO2 atmosphere. Cells were allowed to expand until reaching saturation, at which point they were sub-cultured or harvested for assay use.
(§2) MV4-11, Molm-14, THP-1, A375, and HCC827 cells were seeded into 96-well plates at 6500, 25000, 5000, 2000 and 8000 cells/well, respectively, and incubated at 37° C., 5% CO2 overnight. Then, these seeded cells were treated with increasing concentrations of the test compounds and incubated for another 72 hours. At the end of the incubation, CellTiter96® AQueous One Solution Reagent (Promega, […]) was added and incubated for the additional 2˜4 hours. Cell viability was determined by measuring absorbance at 490 nm using EMax® microplate reader (Molecular Devices, San Jose, CA, USA).

[2] = system: HCC827 NSCLC cell with EGFR exon 19 deletion mutation; experiment: HCC827 cell proliferation assay (counter screen); format: cell-based, human; conditions: HCC827 cells, 72 hours treatment, CellTiter96, read-out: anti-proliferation activity HCC827 EGFR Exon19 del, IC50 ranking
Protocol: as §1
HCC827 cells are non-small cell lung carcinoma (NSCLC) cells encoding EGFR exon 19 deletion mutation, which renders the cell growth dependent on EGFR signaling instead of class III RTKs signaling. HCC827 cells (catalog #CRL-2868) were obtained from the ATCC. Briefly, cells were cultured in RPMI1640 medium supplemented with 10% FBS and incubated at 37° C. in 5% CO2 atmosphere. Cells were allowed to expand until reaching saturation, at which point they were sub-cultured or harvested for assay use.
as §2

[3] = system: THP-1 human acute monocytic leukemia cell with NRAS G12D mutation; experiment: THP-1 cell proliferation assay (counter screen); format: cell-based; conditions: THP-1 cells, 72 hours treatment, CellTiter96, read-out: anti-proliferation activity THP-1 NRAS N12D, IC50 ranking
Protocol: as §1
THP-1 cells are human acute monocytic leukemia cells with NRAS G12D mutation, which renders the cell growth independent of class III RTKs signaling. THP-1 cells (catalog #TIB-202) were obtained from the ATCC. Briefly, cells were grown in RPMI 1640 medium supplemented with 10% heat inactivated fetal bovine serum and 0.05 mM 2-mercaptoethanol and incubated at 37° C. in 5% CO2 atmosphere. Cells were allowed to expand until reaching saturation, at which point they were sub-cultured or harvested for assay use.
as §2

SMILES	IC50 ([1]; Homo sapiens, MV4-11, 72 h)	IC50 ([2]; Homo sapiens)	IC50 ([3]; Homo sapiens)	IC50 [1]	IC50 [2]	IC50 [3]
Cn1ncc2ccc(-c3n[nH]c4c3Cc3sc(-c5ccc(CN6CCOCC6)c(F)c5)cc3-4)cc21 [Compound 25, 4-(2-fluoro-4-(3-(1-methyl-1H-indazol-6-yl)-1,4-dihydrothieno[2′,3′:4,5]cyclopenta[1,2-c]pyrazol-6-yl)benzyl)morpholine]	< 0.03 µM	> 10 µM	> 10 µM	–	–	–
Cc1cc(-c2cc3c(s2)Cc2c(-c4ccc5cnn(C)c5c4)n[nH]c2-3)ccc1CN1CCOCC1 [Compound 26, 4-(2-methyl-4-(3-(1-methyl-1H-indazol-6-yl)-1,4-dihydrothieno[2′,3′:4,5]cyclopenta[1,2-c]pyrazol-6-yl)benzyl)morpholine]	0.1 to 0.3 µM	> 10 µM	> 10 µM	–	–	–
Cn1ncc2ccc(-c3n[nH]c4c3Cc3sc(-c5ccc(CN6CCOCC6)c(C(F)(F)F)c5)cc3-4)cc21 [Compound 27, 4-(4-(3-(1-methyl-1H-indazol-6-yl)-1,4-dihydrothieno[2′,3′:4,5]cyclopenta[1,2-c]pyrazol-6-yl)-2-(trifluoromethyl)benzyl)morpholine]	0.3 to 1 µM	> 10 µM	> 10 µM	–	–	–
CCC(c1ccc(-c2cc3c(s2)Cc2c(-c4ccc5cnn(C)c5c4)n[nH]c2-3)cc1)N1CCOCC1 (stereo not drawn) [Compound 28, 4-(1-(4-(3-(1-methyl-1H-indazol-6-yl)-1,4-dihydro-thieno[2′,3′:4,5]cyclopenta [1,2-c]pyrazol-6-yl)phenyl)propyl)morpholine]	0.03 to 0.1 µM	> 10 µM	> 10 µM	–	–	–
COc1cc(CN2CCOCC2)ccc1-c1cc2c(s1)Cc1c(-c3ccc4cnn(C)c4c3)n[nH]c1-2 [Compound 29, 4-(3-methoxy-4-(3-(1-methyl-1H-indazol-6-yl)-1,4-dihydrothieno [2′,3′:4,5]cyclopenta[1,2-c]pyrazol-6-yl)benzyl) morpholine]	< 0.03 µM	> 10 µM	> 10 µM	–	–	–
Cn1ncc2ccc(-c3n[nH]c4c3Cc3sc(-c5cncc(C(=O)N6CCOCC6)c5)cc3-4)cc21 [Compound 31, (5-(3-(1-methyl-1H-indazol-6-yl)-1,4-dihydrothieno[2′,3′:4,5]cyclopenta[1,2-c]pyrazol-6-yl)pyridin-3-yl) (morpholino)methanone]	< 0.03 µM	1 to 10 µM	1 to 10 µM	–	–	–
Cn1ncc2ccc(-c3n[nH]c4c3Cc3sc(-c5ccc(CN6CCOCC6)cc5F)cc3-4)cc21 [Compound 32, 4-(3-fluoro-4-(3-(1-methyl-1H-indazol-6-yl)-1,4-dihydrothieno [2′,3′:4,5]cyclopenta [1,2-c]pyrazol-6-yl)benzyl)morpholine]	0.03 to 0.1 µM	> 10 µM	> 10 µM	–	–	–
Cc1ccc(-c2cc3c(s2)Cc2c(-c4ccc5cnn(C)c5c4)n[nH]c2-3)cn1 [Compound 33, 3-(1-methyl-1H-indazol-6-yl)-6-(6-methylpyridin-3-yl)-1,4-dihydrothieno [2′,3′:4,5]cyclopenta [1,2-c]pyrazole]	–	–	–	0.03 to 0.1 µM	> 10 µM	> 10 µM
Cn1ncc2ccc(-c3n[nH]c4c3Cc3sc(-c5ccc(C(=O)N6CCCCC6)cc5)cc3-4)cc21 [Compound 34, (4-(3-(1-methyl-1H-indazol-6-yl)-1,4-dihydro-thieno[2′,3′:4,5]cyclopenta [1,2-c]pyrazol-6-yl)phenyl)(piperidin-1-yl) methanone]	0.03 to 0.1 µM	> 10 µM	> 10 µM	–	–	–
CC(C)Cn1ncc2ccc(-c3n[nH]c4c3Cc3sc(-c5ccc(CN6CCOCC6)cc5)cc3-4)cc21 [Compound 35, 4-(4-(3-(1-isobutyl-1H-indazol-6-yl)-1,4-dihydro-thieno[2′,3′:4,5]cyclopenta [1,2-c]pyrazol-6-yl)benzyl)morpholine]	0.1 to 0.3 µM	> 10 µM	1 to 10 µM	–	–	–
Cn1ncc2ccc(-c3n[nH]c4c3Cc3sc(-c5cccc(C(=O)N6CCOCC6)c5)cc3-4)cc21 [Compound 37, (3-(3-(1-methyl-1H-indazol-6-yl)-1,4-dihydro-thieno[2′,3′:4,5]cyclopenta [1,2-c]pyrazol-6-yl)phenyl)(morpholino) methanone]	< 0.03 µM	> 10 µM	> 10 µM	–	–	–
Cn1ncc2ccc(-c3n[nH]c4c3Cc3sc(-c5ccc(C(=O)N6CCCC6)cc5)cc3-4)cc21 [Compound 38, (4-(3-(1-methyl-1H-indazol-6-yl)-1,4-dihydro-thieno[2′,3′:4,5]cyclopenta [1,2-c]pyrazol-6-yl)phenyl)(pyrrolidin-1-yl) methanone]	< 0.03 µM	> 10 µM	> 10 µM	–	–	–
Cn1ncc2ccc(-c3n[nH]c4c3Cc3sc(-c5ccc(CN6CCSCC6)cc5)cc3-4)cc21 [Compound 39, 3-(1-methyl-1H-indazol-6-yl)-6-(4-(thiomorpho-linomethyl)phenyl)-1,4-dihydrothieno[2′,3′:4,5] cyclopenta[1,2-c]pyrazole]	0.03 to 0.1 µM	> 10 µM	> 10 µM	–	–	–
Cn1ncc2ccc(-c3n[nH]c4c3Cc3sc(-c5cnc(C(=O)N6CCOCC6)nc5)cc3-4)cc21 [Compound 41, (5-(3-(1-methyl-1H-indazol-6-yl)-1,4-dihydrothieno[2′,3′:4,5]cyclopenta[1,2-c]pyrazol-6-yl)pyrimidin-2-yl) (morpholino)methanone]	< 0.03 µM	> 10 µM	> 10 µM	–	–	–
CC(C)n1ncc2ccc(-c3n[nH]c4c3Cc3sc(-c5ccc(CN6CCOCC6)cc5)cc3-4)cc21 [Compound 42, 4-(4-(3-(1-isopropyl-1H-indazol-6-yl)-1,4-dihydro-thieno[2′,3′:4,5]cyclopenta [1,2-c]pyrazol-6-yl)benzyl)morpholine]	0.03 to 0.1 µM	> 10 µM	> 10 µM	–	–	–
COc1cc(-c2cc3c(s2)Cc2c(-c4ccc5cnn(C)c5c4)n[nH]c2-3)ccc1C(=O)N1CCOCC1 [Compound 43, (2-methoxy-4-(3-(1-methyl-1H-indazol-6-yl)-1,4-dihydrothieno [2′,3′:4,5]cyclopenta [1,2-c]pyrazol-6-yl)phenyl)(morpholino) methanone]	0.03 to 0.1 µM	> 10 µM	> 10 µM	–	–	–
Cn1ncc2ccc(-c3n[nH]c4c3Cc3sc(-c5ccc(C(=O)N6CCOCC6)c(F)c5)cc3-4)cc21 [Compound 44, (2-fluoro-4-(3-(1-methyl-1H-indazol-6-yl)-1,4-dihydrothieno[2′,3′:4,5]cyclopenta[1,2-c]pyrazol-6-yl)phenyl)(morpholino) methanone]	< 0.03 µM	> 10 µM	> 10 µM	–	–	–
Cn1ncc2ccc(-c3n[nH]c4c3Cc3sc(-c5cnc(N)nc5)cc3-4)cc21 [Compound 45, 5-(3-(1-methyl-1H-indazol-6-yl)-1,4-dihydrothieno [2′,3′:4,5]cyclopenta[l,2-c]pyrazol-6-yl)pyrimidin-2-amine]	< 0.03 µM	> 10 µM	> 10 µM	–	–	–
Cn1cc(-c2cc3c(s2)Cc2c(-c4ccc5cnn(C)c5c4)n[nH]c2-3)cc1C(=O)N1CCOCC1 [Compound 46, (1-methyl-4-(3-(1-methyl-1H-indazol-6-yl)-1,4-dihydrothieno[2′,3′:4,5]cyclopenta[1,2-c]pyrazol-6-yl)-1H-pyrrol-2-yl) (morpholino)methanone]	< 0.03 µM	> 10 µM	> 10 µM	–	–	–
Cn1ncc2ccc(-c3n[nH]c4c3Cc3sc(-c5ccc(S(=O)(=O)N6CCOCC6)cc5)cc3-4)cc21 [Compound 47, 4-((4-(3-(1-methyl-1H-indazol-6-yl)-1,4-dihydro-thieno[2′,3′:4,5]cyclopenta [1,2-c]pyrazol-6-yl)phenyl)sulfonyl) morpholine]	< 0.03 µM	> 10 µM	> 10 µM	–	–	–
